Test results taken from ChEMBL document CHEMBL1135136, “Carbonic anhydrase inhibitors. Preparation of potent sulfonamides inhibitors incorporating bile acid tails” (Bioorg Med Chem Lett, 2002).

Key:
Carbonic anhydrase 2 = Carbonic anhydrase 2 (Homo sapiens, UniProt P00918)
Description: Inhibitory activity against human recombinant carbonic anhydrase II (CA2)

Carbonic anhydrase 4 = target: T1, Carbonic anhydrase 4 (Bos taurus, UniProt Q95323)
T1 sequence (Q95323 whole entry): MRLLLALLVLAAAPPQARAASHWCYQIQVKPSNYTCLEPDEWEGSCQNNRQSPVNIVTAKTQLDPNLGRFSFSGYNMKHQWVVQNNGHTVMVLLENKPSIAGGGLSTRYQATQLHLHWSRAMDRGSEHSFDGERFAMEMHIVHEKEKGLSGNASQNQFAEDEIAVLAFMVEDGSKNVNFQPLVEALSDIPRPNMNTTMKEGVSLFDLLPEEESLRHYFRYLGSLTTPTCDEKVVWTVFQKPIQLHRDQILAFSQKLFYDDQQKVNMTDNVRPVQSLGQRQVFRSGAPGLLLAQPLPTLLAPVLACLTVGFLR
Description: Inhibitory activity against bovine carbonic anhydrase IV (CA4), obtained from bovine lung microsomes

Carbonic anhydrase 1 = Carbonic anhydrase 1 (Homo sapiens, UniProt P00915)
Chain of Carbonic anhydrase 1 (P00915 whole entry): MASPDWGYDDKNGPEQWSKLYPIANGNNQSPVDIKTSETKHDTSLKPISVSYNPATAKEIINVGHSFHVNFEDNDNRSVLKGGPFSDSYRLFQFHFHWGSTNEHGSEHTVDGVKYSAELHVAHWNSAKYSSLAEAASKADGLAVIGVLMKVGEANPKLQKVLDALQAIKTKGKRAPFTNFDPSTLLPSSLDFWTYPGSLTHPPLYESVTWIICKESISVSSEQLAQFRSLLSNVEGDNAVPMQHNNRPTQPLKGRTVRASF
Description: Inhibitory activity against human recombinant carbonic anhydrase I (CA1)

Row | SMILES | Ki (Carbonic anhydrase 2) | Ki (Carbonic anhydrase 4) | Ki (Carbonic anhydrase 1)
1 | C[C@H](CCC(=O)Nc1ccc(S(N)(=O)=O)cc1Cl)[C@H]1CC[C@H]2[C@@H]3[C@@H](O)C[C@@H]4C[C@H](O)CC[C@]4(C)[C@H]3CC[C@]12C | 17 nM | 30 nM | 190 nM
2 | C[C@H](CCC(=O)Nc1ccc(S(N)(=O)=O)cc1I)[C@H]1CC[C@H]2[C@@H]3[C@H](O)C[C@@H]4C[C@H](O)CC[C@]4(C)[C@H]3C[C@H](O)[C@]12C | 53 nM | 104 nM | 510 nM
3 | C[C@H](CCC(=O)Nc1ccc(S(N)(=O)=O)cc1Br)[C@H]1CC[C@H]2[C@@H]3[C@@H](O)C[C@@H]4C[C@H](O)CC[C@]4(C)[C@H]3CC[C@]12C | 10 nM | 23 nM | 91 nM
4 | C[C@H](CCC(=O)NCc1ccc(S(N)(=O)=O)cc1)[C@H]1CC[C@H]2[C@@H]3[C@H](O)C[C@@H]4C[C@H](O)CC[C@]4(C)[C@H]3CC[C@]12C | 96 nM | 244 nM | 3450 nM
5 | C[C@H](CCC(=O)Nc1ccccc1S(N)(=O)=O)[C@H]1CC[C@H]2[C@@H]3CC[C@@H]4C[C@H](O)CC[C@]4(C)[C@H]3C[C@H](O)[C@]12C | 280 nM | 975 nM | 20100 nM
6 | C[C@H](CCC(=O)Nc1ccccc1S(N)(=O)=O)[C@H]1CC[C@H]2[C@@H]3CC[C@@H]4C[C@H](O)CC[C@]4(C)[C@H]3CC[C@]12C | 270 nM | 750 nM | 9200 nM
7 | C[C@H](CCC(=O)Nc1nnc(S(N)(=O)=O)s1)[C@H]1CC[C@H]2[C@@H]3[C@H](O)C[C@@H]4C[C@H](O)CC[C@]4(C)[C@H]3CC[C@]12C | 52 nM | 240 nM | 410 nM
8 | C[C@H](CCC(=O)Nc1ccc(S(N)(=O)=O)cc1Br)[C@H]1CC[C@H]2[C@@H]3C(=O)C[C@@H]4CC(=O)CC[C@]4(C)[C@H]3CC(=O)[C@]12C | 9 nM | 28 nM | 66 nM
9 | C[C@H](CCC(=O)Nc1ccc(S(N)(=O)=O)cc1I)[C@H]1CC[C@H]2[C@@H]3[C@H](O)C[C@@H]4C[C@H](O)CC[C@]4(C)[C@H]3CC[C@]12C | 55 nM | 110 nM | 521 nM
10 | C[C@H](CCC(=O)Nc1cccc(S(N)(=O)=O)c1)[C@H]1CC[C@H]2[C@@H]3[C@H](O)C[C@@H]4C[C@H](O)CC[C@]4(C)[C@H]3C[C@H](O)[C@]12C | 218 nM | 1350 nM | 23000 nM
11 | C[C@H](CCC(=O)Nc1ccc(S(N)(=O)=O)cc1)[C@H]1CC[C@H]2[C@@H]3CC[C@@H]4C[C@H](O)CC[C@]4(C)[C@H]3CC[C@]12C | 106 nM | 280 nM | 6300 nM
12 | C[C@H](CCC(=O)Nc1c(S(N)(=O)=O)cc(S(N)(=O)=O)c(Cl)c1Cl)[C@H]1CC[C@H]2[C@@H]3[C@H](O)C[C@@H]4C[C@H](O)CC[C@]4(C)[C@H]3CC[C@]12C | 21 nM | 95 nM | 343 nM
13 | C[C@H](CCC(=O)NCCc1ccc(S(N)(=O)=O)cc1)[C@H]1CC[C@H]2[C@@H]3[C@H](O)C[C@@H]4C[C@H](O)CC[C@]4(C)[C@H]3C[C@H](O)[C@]12C | 86 nM | 220 nM | 3400 nM
14 | C[C@H](CCC(=O)Nc1cccc(S(N)(=O)=O)c1)[C@H]1CC[C@H]2[C@@H]3C(=O)C[C@@H]4CC(=O)CC[C@]4(C)[C@H]3CC(=O)[C@]12C | 156 nM | 440 nM | 7440 nM
15 | C[C@H](CCC(=O)Nc1nnc(S(N)(=O)=O)s1)[C@H]1CC[C@H]2[C@@H]3CC[C@@H]4C[C@H](O)CC[C@]4(C)[C@H]3CC[C@]12C | 10 nM | 28 nM | 210 nM
16 | C[C@H](CCC(=O)Nc1ccc(S(N)(=O)=O)cc1F)[C@H]1CC[C@H]2[C@@H]3CC[C@@H]4C[C@H](O)CC[C@]4(C)[C@H]3C[C@H](O)[C@]12C | 42 nM | 96 nM | 780 nM
17 | C[C@H](CCC(=O)OCCOc1ccc2nc(S(N)(=O)=O)sc2c1)[C@H]1CC[C@H]2[C@@H]3[C@H](O)C[C@@H]4C[C@H](O)CC[C@]4(C)[C@H]3C[C@H](O)[C@]12C | 3 nM | 10 nM | 39 nM
18 | C[C@H](CCC(=O)Nc1c(S(N)(=O)=O)cc(S(N)(=O)=O)c(Cl)c1Cl)[C@H]1CC[C@H]2[C@@H]3CC[C@@H]4C[C@H](O)CC[C@]4(C)[C@H]3CC[C@]12C | 17 nM | 87 nM | 130 nM
19 | C[C@H](CCC(=O)NCc1ccc(S(N)(=O)=O)cc1)[C@H]1CC[C@H]2[C@@H]3C(=O)C[C@@H]4CC(=O)CC[C@]4(C)[C@H]3CC(=O)[C@]12C | 26 nM | 40 nM | 600 nM

Row | SMILES | Ki (Carbonic anhydrase 2) | Ki (Carbonic anhydrase 4) | Ki (Carbonic anhydrase 1)
20 | C[C@H](CCC(=O)Nc1ccccc1S(N)(=O)=O)[C@H]1CC[C@H]2[C@@H]3C(=O)C[C@@H]4CC(=O)CC[C@]4(C)[C@H]3CC(=O)[C@]12C | 170 nM | 505 nM | 8100 nM
21 | C[C@H](CCC(=O)Nc1ccccc1S(N)(=O)=O)[C@H]1CC[C@H]2[C@@H]3[C@H](O)C[C@@H]4C[C@H](O)CC[C@]4(C)[C@H]3C[C@H](O)[C@]12C | 275 nM | 1200 nM | 25500 nM
22 | C[C@H](CCC(=O)Nc1nnc(S(N)(=O)=O)s1)[C@H]1CC[C@H]2[C@@H]3CC[C@@H]4C[C@H](O)CC[C@]4(C)[C@H]3C[C@H](O)[C@]12C | 50 nM | 130 nM | 200 nM
23 | C[C@H](CCC(=O)OCc1ccc(S(N)(=O)=O)cc1)[C@H]1CC[C@H]2[C@@H]3[C@H](O)C[C@@H]4C[C@H](O)CC[C@]4(C)[C@H]3CC[C@]12C | 98 nM | 340 nM | 1230 nM
24 | C[C@H](CCC(=O)NCCC(=O)Nc1nnc(S(N)(=O)=O)s1)[C@H]1CC[C@H]2[C@@H]3C(=O)C[C@@H]4CC(=O)CC[C@]4(C)[C@H]3CC(=O)[C@]12C | 1.1 nM | 7 nM | 22 nM
25 | C[C@H](CCC(=O)OCc1ccc(S(N)(=O)=O)cc1)[C@H]1CC[C@H]2[C@@H]3CC[C@@H]4C[C@H](O)CC[C@]4(C)[C@H]3C[C@H](O)[C@]12C | 106 nM | 350 nM | 1000 nM
26 | C[C@H](CCC(=O)NNc1ccc(S(N)(=O)=O)cc1)[C@H]1CC[C@H]2[C@@H]3CC[C@@H]4C[C@H](O)CC[C@]4(C)[C@H]3CC[C@]12C | 280 nM | 650 nM | 15000 nM
27 | C[C@H](CCC(=O)OCCc1ccc(S(N)(=O)=O)cc1)[C@H]1CC[C@H]2[C@@H]3[C@@H](O)C[C@@H]4C[C@H](O)CC[C@]4(C)[C@H]3CC[C@]12C | 58 nM | 160 nM | 350 nM
28 | C[C@H](CCC(=O)OCc1ccc(S(N)(=O)=O)cc1)[C@H]1CC[C@H]2[C@@H]3CC[C@@H]4C[C@H](O)CC[C@]4(C)[C@H]3CC[C@]12C | 92 nM | 313 nM | 800 nM
29 | C[C@H](CCC(=O)/N=c1\sc(S(N)(=O)=O)nn1C)[C@H]1CC[C@H]2[C@@H]3[C@@H](O)C[C@@H]4C[C@H](O)CC[C@]4(C)[C@H]3CC[C@]12C | 2 nM | 17 nM | 54 nM
30 | C[C@H](CCC(=O)NCCc1ccc(S(N)(=O)=O)cc1)[C@H]1CC[C@H]2[C@@H]3[C@H](O)C[C@@H]4C[C@H](O)CC[C@]4(C)[C@H]3CC[C@]12C | 86 nM | 235 nM | 3300 nM
31 | C[C@H](CCC(=O)NCCc1ccc(S(N)(=O)=O)cc1)[C@H]1CC[C@H]2[C@@H]3C(=O)C[C@@H]4CC(=O)CC[C@]4(C)[C@H]3CC(=O)[C@]12C | 18 nM | 29 nM | 285 nM
32 | C[C@H](CCC(=O)Nc1ccc(S(N)(=O)=O)cc1Br)[C@H]1CC[C@H]2[C@@H]3[C@H](O)C[C@@H]4C[C@H](O)CC[C@]4(C)[C@H]3C[C@H](O)[C@]12C | 35 nM | 60 nM | 600 nM
33 | C[C@H](CCC(=O)NCCC(=O)Nc1nnc(S(N)(=O)=O)s1)[C@H]1CC[C@H]2[C@@H]3[C@@H](O)C[C@@H]4C[C@H](O)CC[C@]4(C)[C@H]3CC[C@]12C | 1.3 nM | 11 nM | 98 nM
34 | C[C@H](CCC(=O)NCCC(=O)Nc1nnc(S(N)(=O)=O)s1)[C@H]1CC[C@H]2[C@@H]3CC[C@@H]4C[C@H](O)CC[C@]4(C)[C@H]3CC[C@]12C | 2.1 nM | 19 nM | 200 nM
35 | C[C@H](CCC(=O)OCCc1ccc(S(N)(=O)=O)cc1)[C@H]1CC[C@H]2[C@@H]3CC[C@@H]4C[C@H](O)CC[C@]4(C)[C@H]3C[C@H](O)[C@]12C | 78 nM | 300 nM | 885 nM
36 | C[C@H](CCC(=O)NCCC(=O)Nc1nnc(S(N)(=O)=O)s1)[C@H]1CC[C@H]2[C@@H]3[C@H](O)C[C@@H]4C[C@H](O)CC[C@]4(C)[C@H]3C[C@H](O)[C@]12C | 1.2 nM | 31 nM | 250 nM
37 | C[C@H](CCC(=O)Nc1cc(Cl)c(S(N)(=O)=O)cc1S(N)(=O)=O)[C@H]1CC[C@H]2[C@@H]3C(=O)C[C@@H]4CC(=O)CC[C@]4(C)[C@H]3CC(=O)[C@]12C | 11 nM | 50 nM | 77 nM
38 | C[C@H](CCC(=O)/N=c1\sc(S(N)(=O)=O)nn1C)[C@H]1CC[C@H]2[C@@H]3CC[C@@H]4C[C@H](O)CC[C@]4(C)[C@H]3CC[C@]12C | 8 nM | 21 nM | 205 nM
